Source: patent US8877747B2, “Indenone derivative and pharmaceutical composition comprising same” (Korea Research Institute of Chemical Technology, priority 2009, dated 2014)
Where a name gives a salt, the structure may show the parent alone.

What follows are compounds tested on MC3T3-E1 cells (assay: ALP activity, differentiation of osteoblast cells). Conditions: Mus musculus, MC3T3-E1, 144 h; MC3T3E1 cells treated with 10 μM compound and OF; relates activity to OF-only group (100%); higher = more efficacious.
Type: cell-based
Outline: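 MC3T3-E1 cells were cultured 6 days at 37 °C in osteogenic medium (ascorbic acid, β-glycerophosphate) with compound at 0.1, 1 and 10 μM; medium and compound were renewed every 2-3 days. Freeze-thaw lysates were protein-normalised and ALP activity was read with 4-nitrophenylphosphate; DMSO and OF-only groups served as comparators.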

Structure (SMILES) | activity at 10 µM [%]
O=C1C(c2cccnc2)=C(c2ccccc2)c2ccc(OCCN3CCOCC3)cc21 [Example 1, 6-(2-morpholinoethoxy)-3-phenyl-2-(pyridin-3-yl)-1H-inden-1-one hydrochloride salt] | 455
COc1ccc(C2=C(c3ccc(F)cc3F)c3ccc(OCCN4CCS(=O)(=O)CC4)cc3C2=O)cc1F [Example 114, 2-(3-fluoro-4-methoxyphenyl)-3-(2,4-difluorophenyl)-6-[2-(1,1-dioxothiomorpholin-4-yl)ethoxy]-1H-inden-1-one] | 286
O=C1C(c2cnc3ccccc3c2)=C(c2ccc(F)cc2F)c2ccc(OCCN3CCS(=O)(=O)CC3)cc21 [Example 115, 3-(2,4-difluorophenyl)-6-[2-(1,1-dioxothiomorpholin-4-yl)ethoxy]-2-(quinolin-3-yl)-1H-inden-1-one] | 199
Cc1ccc(C2=C(c3ccc(F)cc3F)c3ccc(OCCN4CCN(S(C)(=O)=O)CC4)cc3C2=O)cc1 [Example 116, 3-(2,4-difluorophenyl)-6-{2-[4-(methylsulfonyl)piperazin-1-yl]ethoxy}-2-p-tolyl-1H-inden-1-one] | 71
COc1ccc(C2=C(c3ccc(F)cc3F)c3ccc(OCCN4CCN(S(C)(=O)=O)CC4)cc3C2=O)cn1 [Example 117, 3-(2,4-difluorophenyl)-2-(6-methoxypyridin-3-yl)-6-{2-[4-(methylsulfonyl)piperazin-1-yl]ethoxy}-1H-inden-1-one] | 98
COc1ccc(C2=C(c3ccc(F)cc3F)c3ccc(OCCN4CCN(S(C)(=O)=O)CC4)cc3C2=O)cc1F [Example 118, 2-(3-fluoro-4-methoxyphenyl)-3-(2,4-difluorophenyl)-6-{2-[4-(methylsulfonyl)piperazin-1-yl]ethoxy}-1H-inden-1-one] | 311
CS(=O)(=O)N1CCN(CCOc2ccc3c(c2)C(=O)C(c2cnc4ccccc4c2)=C3c2ccc(F)cc2F)CC1 [Example 119, 3-(2,4-difluorophenyl)-6-{2-[4-(methylsulfonyl)piperazin-1-yl]ethoxy}-2-(quinolin-3-yl)-1H-inden-1-one] | 170
Cc1ccc(C2=C(c3ccc(F)cc3F)c3ccc(OCCC4CCN(S(C)(=O)=O)CC4)cc3C2=O)cc1 [Example 120, 3-(2,4-difluorophenyl)-6-{2-[1-(methylsulfonyl)piperidin-4-yl]ethoxy}-2-p-tolyl-1H-inden-1-one] | 169
COc1ccc(C2=C(c3ccc(F)cc3F)c3ccc(OCCC4CCN(S(C)(=O)=O)CC4)cc3C2=O)cn1 [Example 121, 3-(2,4-difluorophenyl)-2-(6-methoxypyridin-3-yl)-6-{2-[1-(methylsulfonyl)piperidin-4-yl]ethoxy}-1H-inden-1-one] | 207
COc1ccc(C2=C(c3ccc(F)cc3F)c3ccc(OCCC4CCN(S(C)(=O)=O)CC4)cc3C2=O)cc1F [Example 122, 2-(3-fluoro-4-methoxyphenyl)-3-(2,4-difluorophenyl)-6-{2-[1-(methylsulfonyl)piperidin-4-yl]ethoxy}-1H-inden-1-one] | 203
CS(=O)(=O)N1CCC(CCOc2ccc3c(c2)C(=O)C(c2cnc4ccccc4c2)=C3c2ccc(F)cc2F)CC1 [Example 123, 3-(2,4-difluorophenyl)-6-{2-[1-(methylsulfonyl)piperidin-4-yl]ethoxy}-2-(quinolin-3-yl)-1H-inden-1-one] | 164
COc1ccc(C2=C(c3ccc(F)cc3F)c3ccc(OCCN4CCOCC4)cc3C2=O)cn1 [Example 125, 3-(2,4-difluorophenyl)-2-(6-methoxypyridin-3-yl)-6-[2-(morpholin-4-yl)ethoxy]-1H-inden-1-one] | 63
COc1ccc(C2=C(c3ccc(F)cc3F)c3ccc(OCCN4CCOCC4)cc3C2=O)cc1F [Example 126, 2-(3-fluoro-4-methoxyphenyl)-3-(2,4-difluorophenyl)-6-[2-(morpholin-4-yl)ethoxy]-1H-inden-1-one] | 73
O=C1C(c2cnc3ccccc3c2)=C(c2ccc(F)cc2F)c2ccc(OCCN3CCOCC3)cc21 [Example 127, 3-(2,4-difluorophenyl)-6-[2-(morpholin-4-yl)ethoxy]-2-(quinolin-3-yl)-1H-inden-1-one] | 55

The compounds below were run on ovariectomized female DDY mice (assay: Bone density after ovariectomy, in-vivo micro-CT). Conditions: oral once a day for 4 weeks.
Parameters: species or system mouse
Text: (§1) Most pharmacological effectiveness of therapeutic agents for osteoporosis has been evaluated using an animal, rather than a human. Particularly, as a model animal for osteoporosis occurring after menopause, ovariectomized female rats have been used for its similarity to women after menopause. To examine the effects of the indenone derivatives on the bone resorption, female SD rats and female DDY mice were subjected to ovariectomy. After the rats or mice were anesthetized by abdominally injecting 25 mg/kg of sodium pentobarbital (Choongwae pharma coporation), the fur of the abdominal region was shaved and the operation area was sterilized. About 1.5 cm of abdominal skin, abdominal muscle, and peritoneum were cut in the middle under aseptic condition, and ovary was exposed, followed by removal of both left and right ovaries after ligaturing of oviducts using silk threads. Then, peritoneum, abdominal muscle and skin were sutured with silk threads. The Sham group, animals operated upon for the surgery as in the ovariectomized rats except for removing ovary, was employed to compare the effects. […]

Structure (SMILES) | Bone density (FIG. 3A)
O=C1C(c2cccnc2)=C(c2ccccc2)c2ccc(OCCN3CCOCC3)cc21 [Example 1, 6-(2-morpholinoethoxy)-3-phenyl-2-(pyridin-3-yl)-1H-inden-1-one hydrochloride salt] | significantly increased

These compounds were tested on ovariectomized female SD rats (assay: Bone density after ovariectomy, in-vivo micro-CT). Conditions: oral once a day for 4 weeks.
Parameters: species or system rat
Text: as §1

Structure (SMILES) | Bone density (FIG. 3B)
O=C1C(c2cccnc2)=C(c2ccccc2)c2ccc(OCCN3CCOCC3)cc21 [Example 1, 6-(2-morpholinoethoxy)-3-phenyl-2-(pyridin-3-yl)-1H-inden-1-one hydrochloride salt] | significantly increased
